Read-outs that look alike come from different tables or passages of the source.
Legend:
[1] = biological target: T1, human DA transporters [(h)DAT] (Homo sapiens, UniProt Q01959); test: Inhibition of [3H]dopamine uptake into HEK293 cells stably expressing hDAT; type: cell-based
T1 construct: expressed in transfected cells; host or cells: HEK-293
Source text: (§1) Cell Lines and Culture: Human embryonic kidney (HEK-293) cells stably expressing human DAT, NET or SERT were maintained as previously described in Eshleman, A. J.; Carmolli, M.; Cumbay, M.; Martens, C. R.; Neve, K. A.; Janowsky, A., J. Pharmacol. Exp. Ther. 1999, 289, (2), 877-885. Use was made of several human cell lines that naturally or heterologously express specific, functional, human nAChR subtypes. Cells of the TE671/RD line naturally expresses muscle-type nAChR (a1β1γδ- or α1*-nAChR), and SH-SY5Y neuroblastoma cells naturally expresses autonomic α3β4*-nAChRs (containing α3, β4, probably α5, and sometimes β2 subunits). Different clones of SH-EP1 epithelial cell lines have been engineered to heterologously express either α4β2-nAChR, which are thought to be the most abundant, high affinity nicotine-binding nAChR in mammalian brain, or α4β4-nAChR, another possible brain nAChR subtype (SH-EP1-hα4β2 or α4β4 cells, respectively). These cells were maintained as low passage number (1-26 from our frozen stocks) cultures to ensure stable expression of native or heterologously-expressed nAChR as previously described (see Lukas, R. J.; Fryer, J. D.; Eaton, J. B.; L., G. C., Some methods for studies of nicotinic acetylcholine receptor pharmacology, in Nicotinic receptors and the Nervous System, Levine, E. D., Ed. CRC Press: Boca Raton, 2002; pp 3-27, incorporated herein by reference in its entirety). Cells were passaged once weekly by splitting just-confluent cultures 1/300 (TE671/RD), 1/5 (SH-SY5Y), or 1/20 (transfected SH-EP1) in serum-supplemented medium to maintain log-phase growth.
(§2) See, for example, Damaj, M. I.; Carroll, F. I.; Eaton, J. B.; Navarro, H. A.; Blough, B. E.; Mirza, S.; Lukas, R. J.; Martin, B. R., Mol. Pharmacol. 2004, 66, (3), 675-682 and Eshleman, A. J.; Carmolli, M.; Cumbay, M.; Martens, C. R.; Neve, K. A.; Janowsky, A., J. Pharmacol. Exp. Ther. 1999, 289, (2), 877-885, both incorporated by reference herein in their entireties.

[2] = biological target: T2, 5HT transporters [(h)SERT] (Homo sapiens, UniProt P31645); test: Inhibition of [3H]serotonin uptake into HEK293 cells stably expressing hSERT; type: cell-based
T2 construct: expressed in transfected cells; host or cells: HEK-293
T2 sequence (P31645 whole entry): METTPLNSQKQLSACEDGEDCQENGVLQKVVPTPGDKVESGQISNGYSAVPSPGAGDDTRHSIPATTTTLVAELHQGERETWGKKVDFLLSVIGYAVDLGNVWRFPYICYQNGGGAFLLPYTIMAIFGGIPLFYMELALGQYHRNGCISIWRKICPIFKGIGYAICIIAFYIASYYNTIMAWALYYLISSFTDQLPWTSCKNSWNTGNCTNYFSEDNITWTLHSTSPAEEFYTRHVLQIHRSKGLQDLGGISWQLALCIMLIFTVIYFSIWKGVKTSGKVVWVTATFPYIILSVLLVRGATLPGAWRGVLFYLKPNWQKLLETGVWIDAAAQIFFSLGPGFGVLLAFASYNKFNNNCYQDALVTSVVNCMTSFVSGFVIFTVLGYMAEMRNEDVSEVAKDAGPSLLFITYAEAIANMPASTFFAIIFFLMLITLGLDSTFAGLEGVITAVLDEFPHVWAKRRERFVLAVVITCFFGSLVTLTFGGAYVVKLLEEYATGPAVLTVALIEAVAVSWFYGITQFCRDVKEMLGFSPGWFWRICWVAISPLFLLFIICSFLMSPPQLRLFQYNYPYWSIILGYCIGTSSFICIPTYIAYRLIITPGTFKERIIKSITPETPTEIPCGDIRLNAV
Source text: as §1, §2

[3] = tested on: Male Institute of Cancer Research (ICR) mice; test: Hot-plate test, blockade of nicotine-induced antinociception; type: in vivo; details: pretreatment 15 min before nicotine 2.5 mg/kg s.c., tested 5 min after nicotine; for ED50: Mus musculus, read-out: AD50 Hot-plate
Source text: (§3) Animals: Male Institute of Cancer Research (ICR) mice (weighing 20-25 g) obtained from Harlan (Indianapolis, Ind.) were used throughout the study. Animals were housed in an Association for Assessment and Accreditation of Laboratory Animal Care-approved facility, were placed in groups of six, and had free access to food and water. Studies were approved by the Institutional Animal Care and Use Committee of Virginia Commonwealth University.
Hot-Plate Test: Mice were placed into a 10-cm wide glass cylinder on a hot plate (Thermojust Apparatus) maintained at 55° C. for assessment of pain responses mediated at supraspinal levels. To minimize tissue damage, a maximum exposure to the hot plate 40 s was imposed. Measures of control latencies (time until the animal jumped or licked its paws; typically 8-12 s) were done twice for stimuli applied at least 10 min apart for each mouse. Antinociceptive responses after test drug administrations were determined and calculated as the % MPE, where % MPE=[(test latency in s−control latency in s)/(40 s−control latency in s)×100]. Groups of 8 to 12 animals were used for each drug condition. […] The animals were then tested 5 min after administration of a subcutaneous dose of 2.5 mg/kg nicotine.

[4] = tested on: Male Institute of Cancer Research (ICR) mice; test: Body temperature, antagonism of nicotine-induced hypothermia; type: in vivo; details: pretreatment 15 min before nicotine 2.5 mg/kg s.c., tested 30 min after nicotine; for ED50: Mus musculus, 0.5 h, read-out: AD50 Hypothermia
Description: as §3
Body Temperature: Rectal temperature was measured by a thermistor probe (inserted 24 mm) and digital thermometer (YSI Inc., Yellow Springs, Ohio). Readings were taken just before and 30 min after subcutaneous injection of either saline or 2.5 mg/kg nicotine. The difference in rectal temperature before and after treatment was calculated for each mouse. The ambient temperature of the laboratory varied from 21 to 24° C. from day to day. […] The animals were then tested 30 min after administration of a subcutaneous dose of 2.5 mg/kg nicotine.

α3β4*-nAChR = biological target: T3, α3β4*-nAChR (Homo sapiens, UniProt P30926+P32297); test: 86Rb+ efflux nAChR functional assay, SH-SY5Y cells; type: cell-based; details: EC80-EC90 carbamylcholine; SH-SY5Y; parentheses = S.E.M. as multiplication/division factor; read-out: nAChR inhibition IC50 α3β4±
T3 construct: other: EC80-EC90 carbamylcholine; SH-SY5Y; parentheses = S.E.M. as multiplication/division
T3 sequence (P32297 32-505): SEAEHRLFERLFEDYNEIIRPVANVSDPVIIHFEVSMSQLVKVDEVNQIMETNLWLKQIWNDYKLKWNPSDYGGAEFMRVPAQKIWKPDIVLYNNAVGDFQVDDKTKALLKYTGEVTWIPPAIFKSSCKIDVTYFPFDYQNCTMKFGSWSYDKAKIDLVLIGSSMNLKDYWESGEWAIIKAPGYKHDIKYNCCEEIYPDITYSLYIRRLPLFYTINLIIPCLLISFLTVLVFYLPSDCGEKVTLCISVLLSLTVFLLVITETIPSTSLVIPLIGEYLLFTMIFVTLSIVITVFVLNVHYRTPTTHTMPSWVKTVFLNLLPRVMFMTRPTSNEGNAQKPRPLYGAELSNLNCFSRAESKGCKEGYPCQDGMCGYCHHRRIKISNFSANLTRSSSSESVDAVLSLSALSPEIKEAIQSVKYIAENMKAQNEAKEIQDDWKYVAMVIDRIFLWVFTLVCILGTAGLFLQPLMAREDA
T3 sequence (P30926 22-498): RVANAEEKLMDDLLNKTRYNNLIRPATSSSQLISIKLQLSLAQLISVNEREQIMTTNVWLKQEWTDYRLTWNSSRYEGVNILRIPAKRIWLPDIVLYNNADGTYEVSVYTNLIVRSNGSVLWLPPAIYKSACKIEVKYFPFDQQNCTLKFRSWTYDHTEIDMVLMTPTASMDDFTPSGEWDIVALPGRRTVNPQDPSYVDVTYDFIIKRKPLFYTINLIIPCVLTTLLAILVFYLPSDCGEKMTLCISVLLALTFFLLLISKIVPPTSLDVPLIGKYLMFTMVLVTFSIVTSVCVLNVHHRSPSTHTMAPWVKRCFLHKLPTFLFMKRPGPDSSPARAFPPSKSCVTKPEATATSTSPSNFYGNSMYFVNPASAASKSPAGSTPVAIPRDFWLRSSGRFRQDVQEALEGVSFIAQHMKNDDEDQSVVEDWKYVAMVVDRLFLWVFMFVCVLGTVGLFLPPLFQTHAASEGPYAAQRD
Source text: as §1
After cells had adhered (generally overnight, but no sooner than 4 h later), the medium was removed and replaced with 250 μL per well of complete medium supplemented with ˜350,000 cpm of ^86Rb^+ (PerkinElmer Life and Analytical Sciences, Boston, Mass.) and counted at 40% efficiency using Cerenkov counting (TriCarb 1900 liquid scintillation analyzer[…]; PerkinElmer Life Sciences).
After at least 4 h and typically overnight, ^86Rb^+ efflux was measured using the “flip-plate” technique. See Lukas, R. J.; Fryer, J. D.; Eaton, J. B.; L., G. C., Some methods for studies of nicotinic acetylcholine receptor pharmacology, in Nicotinic receptors and the Nervous System, Levine, E. D., Ed. CRC Press: Boca Raton, 2002; pp 3-27, incorporated herein by reference in its entirety). Briefly, after aspiration of the bulk of ^86Rb^+ loading medium from each well of the “cell plate,” each well containing cells was rinsed 3× with 2 mL of fresh ^86Rb^+ efflux buffer (130 mM NaCl, 5.4 mM KCl, 2 mM CaCl2, 5 mM glucose, 50 mM HEPES, pH 7.4) to remove extracellular ^86Rb^+. Following removal of residual rinse buffer by aspiration, the flip-plate technique was used again to simultaneously introduce 1.5 mL of fresh efflux buffer containing drugs of choice at indicated final concentrations from a 24-well “efflux/drug plate” into the wells of the cell plate. After a 5 min incubation, the solution was “flipped” back into the efflux/drug plate, and any remaining buffer in the cell plate was removed by aspiration. Cells remaining in the cell plate were lysed and suspended by addition of 1.5 mL of 0.1 M NaOH, 0.1% sodium dodecyl sulfate to each well.
Similarly, the sum of ^86Rb^+ in cell plates and efflux/drug plates also determined the efficiency of ^86Rb^+ loading (the percentage of applied ^86Rb^+ actually loaded into cells).
Specific efflux was then taken as the difference in control samples between total and non-specific ^86Rb^+ efflux. Any intrinsic agonist activity of test drugs was ascertained using samples containing test drug only at different concentrations and was normalized, after subtraction of non-specific efflux, to specific efflux in test drug-free, control samples.

[5] = HEK293-hDAT, mean ± standard error of three independent experiments, read-out: monoamine uptake inhibition IC50 [3H]DA
[6] = HEK293-hSERT, mean ± standard error of three independent experiments, read-out: monoamine uptake inhibition IC50 [3H]5HT

T1 sequence (Q01959 whole entry): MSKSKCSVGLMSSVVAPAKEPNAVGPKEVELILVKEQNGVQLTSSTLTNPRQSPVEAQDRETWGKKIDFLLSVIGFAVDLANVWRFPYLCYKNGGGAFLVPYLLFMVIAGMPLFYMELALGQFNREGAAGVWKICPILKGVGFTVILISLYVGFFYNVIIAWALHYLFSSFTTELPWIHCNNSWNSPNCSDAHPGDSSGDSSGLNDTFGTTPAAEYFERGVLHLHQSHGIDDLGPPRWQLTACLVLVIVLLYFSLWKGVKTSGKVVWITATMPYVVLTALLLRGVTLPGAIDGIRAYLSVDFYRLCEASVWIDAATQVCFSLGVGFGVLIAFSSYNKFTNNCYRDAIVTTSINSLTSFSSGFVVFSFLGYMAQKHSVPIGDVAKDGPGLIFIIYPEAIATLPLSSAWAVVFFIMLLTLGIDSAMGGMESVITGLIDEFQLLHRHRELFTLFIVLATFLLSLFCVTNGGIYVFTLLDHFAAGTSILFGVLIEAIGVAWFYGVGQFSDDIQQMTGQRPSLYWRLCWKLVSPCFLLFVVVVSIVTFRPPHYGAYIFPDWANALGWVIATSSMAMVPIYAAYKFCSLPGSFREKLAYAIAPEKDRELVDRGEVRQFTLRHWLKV

Structure (SMILES)	IC50 [1] [µM]	selectivity for inhibition of DA uptake over α4β2-nAChR [1] [fold]	IC50 [2] [µM]	AD50 Hot-plate [3]	AD50 Hypothermia [4]	IC50 [1, 5] [µM]	IC50 [2, 6] [µM]	IC50 (α3β4*-nAChR) [µM]	ED50 [4] [mg/kg]	ED50 [3] [mg/kg]	IC50 ([2]; read-out: monoamine uptake inhibition IC50 [3H]5HT) [µM]
CC1NC(C)(C)COC1(O)c1ccc(Cl)c(Cl)c1 (racemic) [Compound 4n, 2-(3,4-Dichlorophenyl)-3,5,5-trimethylmorpholin-2-ol]	0.07	> 285	0.36	IA (IA: AD50 > 15 mg/kg)	IA (IA: AD50 > 15 mg/kg)						
CC1NC(C)(C)COC1(O)c1cc(Cl)cc(Cl)c1 (racemic) [Compound 4p, 2-(3,5-Dichlorophenyl)-3,5,5-trimethylmorpholin-2-ol]				IA (IA: AD50 > 15 mg/kg)	IA (IA: AD50 > 15 mg/kg)	8.25 ± 0.72	> 10				
C[C@@H]1NC(C)(C)CO[C@@]1(O)c1ccccc1 [Compound 4b, (2S,3S)-2-Phenyl-3,5,5-trimethylmorpholin-2-ol]				IA (IA: AD50 > 15 mg/kg)	IA (IA: AD50 > 15 mg/kg)	1.06 ± 0.03	> 10	8.9			
C[C@@H]1NC(C)(C)CO[C@@]1(O)c1cccc(F)c1 [Compound 4c, (2S,3S)-2-(3-Fluorophenyl)-3,5,5-trimethylmorpholin-2-ol]			> 10			1.38 ± 0.36		15	2.3 to 7		
C[C@@H]1NC(C)(C)CO[C@@]1(O)c1cccc(Br)c1 [Compound 4d, (2S,3S)-2-(3-Bromophenyl)-3,5,5-trimethylmorpholin-2-ol]			> 10			3.34 ± 0.68		3.2	1.7	3.7 to 8.6	
Cc1cccc([C@]2(O)OCC(C)(C)N[C@H]2C)c1 [Compound 4e, (2S,3S)-2-(m-Tolyl)-3,5,5-trimethylmorpholin-2-ol]						2.6 ± 0.4	> 10	8.6	2.3 to 7		
COc1cccc([C@]2(O)OCC(C)(C)N[C@H]2C)c1 [Compound 4f, (2S,3S)-2-(3-Methoxyphenyl)-3,5,5-trimethylmorpholin-2-ol]				IA (IA: AD50 > 15 mg/kg)	IA (IA: AD50 > 15 mg/kg)	16	> 10	11			
C[C@@H]1NC(C)(C)CO[C@@]1(O)c1cccc([N+](=O)[O-])c1 [Compound 4g, (2S,3S)-2-(3-Nitrophenyl)-3,5,5-trimethylmorpholin-2-ol]				IA (IA: AD50 > 15 mg/kg)		12	> 10	14			
C[C@@H]1NC(C)(C)CO[C@@]1(O)c1ccc(F)cc1 [Compound 4h, (2S,3S)-2-(4-Fluorophenyl)-3,5,5-trimethylmorpholin-2-ol]				IA (IA: AD50 > 15 mg/kg)		4.2 ± 0.7	> 10	20			
C[C@@H]1NC(C)(C)CO[C@@]1(O)c1ccc(Cl)cc1 [Compound 4i, (2S,3S)-2-(4-Chlorophenyl)-3,5,5-trimethylmorpholin-2-ol]				IA (IA: AD50 > 15 mg/kg)	IA (IA: AD50 > 15 mg/kg)	0.285	4.6 ± 0.9	5.1			
Cc1ccc([C@]2(O)OCC(C)(C)N[C@H]2C)cc1 [Compound 4j, (2S,3S)-3,5,5-Trimethyl-2-(4-methylphenyl)morpholin-2-ol]				IA (IA: AD50 > 15 mg/kg)	IA (IA: AD50 > 15 mg/kg)	0.832 ± 0.26	> 10	8.6			
COc1ccc([C@]2(O)OCC(C)(C)N[C@H]2C)cc1 [Compound 4k, (2S,3S)-2-(4-Methoxyphenyl)-3,5,5-trimethylmorpholin-2-ol]			> 10	IA (IA: AD50 > 15 mg/kg)	IA (IA: AD50 > 15 mg/kg)	> 10		11			
C[C@@H]1NC(C)(C)CO[C@@]1(O)c1ccc(-c2ccccc2)cc1 [Compound 4l, (2S,3S)-2-Biphenyl-4-yl-3,5,5-trimethylmorpholin-2-ol]	> 10		> 10	IA (IA: AD50 > 15 mg/kg)	IA (IA: AD50 > 15 mg/kg)			1.3			
C[C@@H]1NC(C)(C)CO[C@@]1(O)c1ccc(F)c(F)c1 [Compound 4m, (2S,3S)-2-(3,4-Difluorophenyl)-3,5,5-trimethylmorpholin-2-ol]				IA (IA: AD50 > 15 mg/kg)	IA (IA: AD50 > 15 mg/kg)	2.14 ± 0.18	> 10	11.9			
C[C@@H]1NC(C)(C)CO[C@@]1(O)c1cc(F)cc(F)c1 [Compound 4o, (2S,3S)-2-(3,5-Difluorophenyl)-3,5,5-trimethylmorpholin-2-ol]				IA (IA: AD50 > 15 mg/kg)	IA (IA: AD50 > 15 mg/kg)	1.02 ± 0.19	> 10	11			
CC[C@@H]1NC(C)(C)CO[C@@]1(O)c1cccc(Cl)c1 [Compound 4s, (2S,3S)-2-(3-Chlorophenyl)-3-ethyl-5,5-dimethylmorpholin-2-ol]						0.204 ± 0.023		4.3		3.7 to 8.6	2.5 ± 0.54
